Values of other authors in patent publication US20090215102A1, “Method to Assess Breast Cancer Risk” (priority 2005, published 2009).
Structures can show the parent of a compound that is named as a salt. Where two headings read alike, the source gives them in different places.

Assays:
[1] = in vivo
estrogen receptors = details: preclinical data
[2] = test system: rat mammary carcinoma induced by dimethylbenzanthracene (DMBA)

In the case of `CC/C(=C(\c1ccccc1)c1ccc(OCCNC)cc1)c1ccccc1` [N-desmethyl tamoxifen], the “half-life of metabolite suggested by time to steady state” value [1] is given as ~14 days.
For `O=C(c1ccc(OCCN2CCCCC2)cc1)c1c(-c2ccc(O)cc2)sc2cc(O)ccc12` [Raloxifene], the “clearance following chronic dosing” value is given as 40 to 60 L/kg per hour and the “action in uterine and breast tissues” value (estrogen receptors) is given as “estrogen antagonist”.
In the case of `CC/C(=C(\c1ccccc1)c1ccc(OCCN(C)C)cc1)c1ccccc1` [Tamoxifen citrate], the “antiestrogenic properties in animal test systems” value ([2]; animal test systems) is listed as “potent antieskogenic properties”.
In the case of `CC/C(=C(\c1ccccc1)c1ccc(OCCN(C)C)cc1)c1ccccc1` [Tamoxifen], the “induction of rat mammary carcinoma induced by DMBA” value ([2]; rat) is listed as “inhibits the induction”, the associated toxicity (breast cancer; particularly women aged 50 or older) is listed as “increased risk of endometrial cancer, stroke, pulmonary emboli, and deep vein thrombosis” and the “breast cancer risk reduction” value (breast cancer; women with a history of LCIS) is listed as 56%. The “breast cancer risk reduction” value (breast cancer; women with a history of atypical ductal hyperplasia) was 86%.
